≈ marks a conversion by molar mass, not a printed value.
Columns and labels:
[1] = Clearance in Sprague Dawley rat at 1 mg/kg, iv measured for 8 hrs by HPLC analysis; assay type: ADME, organism-based; settings: in vivo
[2] = Cmax in fasted Sprague Dawley rat at 10 mg/kg, po measured for 8 hrs by HPLC analysis; assay type: ADME, organism-based; design: dose 10 mg/kg, time 8 hrs, route po; settings: in vivo
[3] = molecular target: T1, Cytochrome P450 2C9 (Homo sapiens, UniProt P11712); test: Drug metabolism assessed as recombinant CYP2C9 (unknown origin)-mediated 4'-hydroxy FP metabolite formation at 1 to 5 uM incubated for 10 mins in presence of NADPH by LC-MS analysis; assay type: ADME; settings: recombinant enzyme, dose 1-5 µM
T1 sequence (P11712 whole entry): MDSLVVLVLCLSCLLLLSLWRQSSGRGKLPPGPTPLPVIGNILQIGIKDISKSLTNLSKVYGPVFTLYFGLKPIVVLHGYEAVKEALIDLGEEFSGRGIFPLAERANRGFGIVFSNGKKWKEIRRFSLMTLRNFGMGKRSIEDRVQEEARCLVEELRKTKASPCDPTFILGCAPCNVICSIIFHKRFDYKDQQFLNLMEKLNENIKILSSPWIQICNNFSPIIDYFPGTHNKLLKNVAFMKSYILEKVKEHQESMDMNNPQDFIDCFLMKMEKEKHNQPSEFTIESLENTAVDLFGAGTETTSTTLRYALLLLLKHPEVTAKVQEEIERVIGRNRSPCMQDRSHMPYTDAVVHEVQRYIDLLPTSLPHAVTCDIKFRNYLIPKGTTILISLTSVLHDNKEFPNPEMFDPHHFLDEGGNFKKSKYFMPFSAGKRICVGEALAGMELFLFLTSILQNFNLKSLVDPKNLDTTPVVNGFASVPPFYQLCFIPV

[4] = Apparent permeability of compound by PAMPA assay; assay type: ADME
[5] = Solubility in PBS at pH 6.0 at 1 mg measured for 28 hrs by HPLC analysis; assay type: physicochemical; settings: PBS pH 6.0, pH 6
[6] = AUC (0 to 8 hrs) in fasted Sprague Dawley rat at 10 mg/kg, po measured for 8 hrs by HPLC analysis; assay type: ADME, organism-based; design: dose 10 mg/kg, time 8 hrs, route po; settings: in vivo
[7] = Tmax in fasted Sprague Dawley rat at 10 mg/kg, po measured for 8 hrs by HPLC analysis; assay type: ADME, organism-based; settings: in vivo
[8] = Oral bioavailability in fasted Sprague Dawley rat at 10 mg/kg measured for 8 hrs by HPLC analysis; assay type: ADME, organism-based; settings: in vivo
[9] = AUC (0 to 8 hrs) in Sprague Dawley rat at 1 mg/kg, iv measured for 8 hrs by HPLC analysis; assay type: ADME, organism-based; design: dose 1 mg/kg, time 8 hrs, route iv; settings: in vivo
[10] = Solubility in distilled water at 1 mg measured for 28 hrs by HPLC analysis; assay type: physicochemical
[11] = Solubility in HCl at pH 1.2 at 1 mg measured for 28 hrs by HPLC analysis; assay type: physicochemical; settings: HCl pH 1.2, pH 1.2
[12] = Permeability of compound assessed as drug flux measured for 2 to 6 hrs by PAMPA assay; assay type: ADME; settings: time 2-6 hrs
[13] = Half life in Sprague Dawley rat at 1 mg/kg, iv measured for 8 hrs by HPLC analysis; assay type: ADME, organism-based; settings: in vivo
[14] = Volume of distribution at steady state in Sprague Dawley rat at 1 mg/kg, iv measured for 8 hrs by HPLC analysis; assay type: ADME, organism-based; settings: in vivo, read-out: Vdss
[15] = Lipophilicity, log D of compound in n-octanol/PBS at pH 7.4 at 10 mg measured for 48 hrs by HPLC analysis; assay type: physicochemical
[16] = molecular target: T1, Cytochrome P450 2C9; test: Drug metabolism assessed as recombinant CYP2C9 (unknown origin)-mediated 4'-hydroxyl FP-d7 metabolite formation by measuring Vmax/Km per nmol of CYP at 1 to 5 uM incubated for 10 mins in presence of NADPH by LC-MS analysis; assay type: ADME; settings: recombinant enzyme, dose 1-5 µM
[17] = molecular target: T1, Cytochrome P450 2C9; test: Drug metabolism assessed as recombinant CYP2C9 (unknown origin)-mediated 4'-hydroxyl FP-d7 metabolite formation by measuring Vmax per nmol of CYP at 1 to 5 uM incubated for 10 mins in presence of NADPH by LC-MS analysis; assay type: ADME; settings: recombinant enzyme, dose 1-5 µM
[18] = molecular target: T1, Cytochrome P450 2C9; test: Drug metabolism assessed as recombinant CYP2C9 (unknown origin)-mediated 4'-hydroxyl FP-d7 metabolite formation at 1 to 5 uM incubated for 10 mins in presence of NADPH by LC-MS analysis; assay type: ADME; settings: recombinant enzyme, dose 1-5 µM

Compound	clearance [1] [mL/min/kg]	Cmax [2] [ng/mL]	Drug metabolism [3]	Papp [4] [×10⁻⁶ cm/s]	solubility at 28 h [5] [µg/mL]	AUC(0-t) at 8 h [6] [ng·h/mL]	Tmax [7] [min]	bioavailability [8] [%]	AUC(0-t) at 8 h [9] [ng·h/mL]	solubility at 28 h [10] [µg/mL]	solubility at 28 h [11] [µg/mL]	Drug transport [12] [µg/h]	half-life [13] [min]	Vd [14] [L/kg]	logD at 48 h [15]	Vmax/Km [16] [µL/min]	Vmax [17] [pmol/min]	Drug metabolism [18]
CC(C(=O)O)c1ccc(-c2ccccc2)c(F)c1 (configuration not stated) [FLURBIPROFEN]	0.216	29600	Metabolite_Detected	5.24	810 (≈ 3310 µM)	130000	30	66.9	19500	24.1 (≈ 98.7 µM)	5.9 (≈ 24.2 µM)	4.53	34.2	0.0204	0.9	–	–	–
[2H]c1c([2H])c([2H])c(-c2c([2H])c([2H])c(C(C)C(=O)O)c([2H])c2F)c([2H])c1[2H] (configuration not stated)	0.217	33000	–	5.32	918 (≈ 3640 µM)	144000	60	75.3	19200	32.7 (≈ 129 µM)	12.7 (≈ 50.5 µM)	4.6	33	0.0207	0.87	1.24	0.91	Metabolite_Detected

Source: ChEMBL document CHEMBL5356989, “Impact of multiple H/D replacements on the physicochemical properties of flurbiprofen” (RSC Med Chem, 2023)
